From patent US8927500B2, “Peptidomimetic macrocycles” (Aileron Therapeutics, Inc., priority 2012, dated 2015)
Where a SMILES comes first, the peptide text is derived from it. Bridges are numbered along the chain shown (N, C = ends). [ ]: non-standard residue; d: D form. R8 = C=CCCCCCC[C@@](C)(N)C(=O)O; Cha = N[C@@H](CC1CCCCC1)C(=O)O; S5 = C=CCCC[C@](C)(N)C(=O)O

Assays:
[1] = tested on: Caspase 3; assay: Caspase 3 detection assay in SJSA1 cells; format: cell-based; conditions: 48 h, Caspase 3 activation over DMSO-treated cells; for caspase 0.3 uM: 0.3 uM peptide; for caspase 3 uM: 3 uM peptide; for caspase 10 uM: 10 uM peptide; for caspase 30 uM: 30 uM peptide; for caspase 1 uM: 1 uM peptide
[2] = tested on: SJSA-1 cells; assay: Cell lysis by peptidomimetic macrocycles (LDH release); format: cell-based; conditions: 1 h at 37C
[3] = target: MDM2 (Homo sapiens, UniProt Q00987); assay: Competitive fluorescence polarization assay for MDM2; format: binding; conditions: competitive FP assay, MDM2; for IC50: read-out: IC50 (MDM2); for Ki: read-out: Ki (MDM2)
[4] = target: T1, MDMX (Homo sapiens, UniProt O15151); assay: Competitive fluorescence polarization assay for MDMX; format: binding; conditions: competitive FP assay; for IC50: read-out: IC50 (MDMX); for Ki: read-out: Ki (MDMX)
T1 sequence (O15151 1-125): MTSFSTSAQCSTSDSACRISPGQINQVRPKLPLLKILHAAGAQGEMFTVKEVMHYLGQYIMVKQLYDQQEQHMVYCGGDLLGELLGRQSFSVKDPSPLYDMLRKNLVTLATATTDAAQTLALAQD

Chain of MDM2 (Q00987 1-125): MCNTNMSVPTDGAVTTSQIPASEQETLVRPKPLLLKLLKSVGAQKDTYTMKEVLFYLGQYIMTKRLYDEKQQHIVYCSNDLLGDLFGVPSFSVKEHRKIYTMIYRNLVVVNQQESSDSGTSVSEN

SMILES	caspase 0.3 uM [1]	caspase 3 uM [1]	caspase 10 uM [1]	caspase 30 uM [1]	6.25 uM % Lysed cells (1 h LDH) [2] [%]	25 uM % Lysed cells (1 h LDH) [2] [%]	50 uM % Lysed cells (1 h LDH) [2] [%]	caspase 1 uM [1]	IC50 [3] [nM]	Ki [3] [nM]	IC50 [4] [nM]	Ki [4] [nM]
CC[C@H](C)[C@H](NC(=O)[C@H](C)NC(=O)[C@H](C)NC(=O)[C@]1(C)CCCC=CCCCCCC[C@@](C)(NC(=O)[C@H](Cc2ccccc2)NC(=O)[C@@H](NC(=O)[C@H](CC(C)C)NC(C)=O)[C@@H](C)O)C(=O)N[C@@H](C)C(=O)N[C@@H](Cc2ccc(O)cc2)C(=O)N[C@@H](Cc2c[nH]c3ccccc23)C(=O)N[C@@H](C)C(=O)N[C@@H](CCC(N)=O)C(=O)N[C@@H](CC(C)C)C(=O)N1)C(=O)N[C@H](CC(C)C)C(N)=O (single isomer, unassigned) [compound 81]	1	1	6	21	1	0	0					
CC(=O)N[C@@H](CC(C)C)C(=O)N[C@H](C(=O)N[C@@H](Cc1ccccc1)C(=O)N[C@]1(C)CCCCCCC=CCCC[C@@](C)(C(=O)N[C@@H](CO)C(=O)N[C@@H](C)C(=O)N[C@@H](C)C(N)=O)NC(=O)[C@H](C2CCCC2)NC(=O)[C@H](CCC(N)=O)NC(=O)[C@H](C)NC(=O)[C@H](Cc2c[nH]c3ccccc23)NC(=O)[C@H](Cc2ccc(O)cc2)NC(=O)[C@H](CCC(=O)O)NC1=O)[C@@H](C)O (single isomer, unassigned) [compound 149]	1	2	4	10	6	7	21					
CC(=O)N[C@@H](CC(C)C)C(=O)N[C@H](C(=O)N[C@@H](Cc1ccccc1)C(=O)N[C@]1(C)CCCCCCC=CCCC[C@@](C)(C(=O)N[C@@H](CO)C(=O)N[C@@H](C)C(=O)N[C@@H](C)C(N)=O)NC(=O)[C@H](CC2CCC2)NC(=O)[C@H](CCC(N)=O)NC(=O)[C@H](C)NC(=O)[C@H](Cc2c[nH]c3ccccc23)NC(=O)[C@H](Cc2ccc(O)cc2)NC(=O)[C@H](CCC(=O)O)NC1=O)[C@@H](C)O (single isomer, unassigned) [compound 153]	2	10	15	20	4	2	3					
CC(=O)N[C@@H](CC(C)C)C(=O)N[C@H](C(=O)N[C@@H](Cc1ccccc1)C(=O)N[C@]1(C)CCCCCCC=CCCC[C@@](C)(C(=O)N[C@@H](C)C(=O)N[C@@H](C)C(=O)N[C@@H](Cc2ccccc2)C(=O)N[C@H](C)C(N)=O)NC(=O)[C@H](CC(C)C)NC(=O)[C@H](CCC(N)=O)NC(=O)[C@H](C)NC(=O)[C@H](Cc2c[nH]c3ccccc23)NC(=O)[C@H](Cc2ccc(O)cc2)NC(=O)[C@H](CCC(=O)O)NC1=O)[C@@H](C)O (single isomer, unassigned) [compound 219]	1	5	17	34	0	−1	2					
CC[C@H](C)[C@H](NC(=O)[C@H](C)NC(=O)[C@H](C)NC(=O)[C@]1(C)CCCC=CCCCCCC[C@@](C)(NC(=O)[C@H](Cc2ccccc2)NC(=O)[C@@H](NC(=O)[C@H](CC(C)C)NC(C)=O)[C@@H](C)O)C(=O)N[C@@H](CCC(=O)O)C(=O)N[C@@H](Cc2c[nH]cn2)C(=O)N[C@@H](Cc2c[nH]c3ccccc23)C(=O)N[C@@H](C)C(=O)N[C@@H](CCC(N)=O)C(=O)N[C@@H](CC(C)C)C(=O)N1)C(=O)N[C@H](C)C(N)=O (single isomer, unassigned) [compound 223]	1	1	5	18	−2	−4	−1					
CC(=O)N[C@@H](CC(C)C)C(=O)N[C@H](C(=O)N[C@@H](Cc1ccccc1)C(=O)N[C@]1(C)CCCCCCC=CCCC[C@@](C)(C(=O)N[C@@H](C)C(=O)N[C@@H](C)C(=O)N[C@@H](C)C(=O)N[C@@H](C)C(=O)N[C@@H](C)C(=O)N[C@H](C)C(N)=O)NC(=O)[C@H](CC(C)C)NC(=O)[C@H](CCC(N)=O)NC(=O)[C@H](C)NC(=O)[C@H](Cc2c[nH]c3cc(Cl)ccc23)NC(=O)[C@H](Cc2ccc(O)cc2)NC(=O)[C@H](C)NC1=O)[C@@H](C)O (single isomer, unassigned) [compound 338]	1	23	20	29	0	0	1	5				
CC(=O)N[C@@H](Cc1ccccc1)C(=O)N[C@]1(C)CCCCCCC=CCCC[C@@](C)(C(=O)N[C@@H](Cc2c[nH]cn2)C(=O)N[C@@H](CCCNC(=N)N)C(=O)N[C@@H](Cc2ccccc2)C(=O)N[C@@H](CC2CCCCC2)C(N)=O)NC(=O)[C@H](CC(C)C)NC(=O)[C@H](CCC(N)=O)NC(=O)[C@H](Cc2c[nH]cn2)NC(=O)[C@H](Cc2c[nH]c3ccccc23)NC(=O)[C@H](Cc2c[nH]cn2)NC(=O)[C@H](Cc2c[nH]cn2)NC1=O [compound 55] (Ac-F[R8]HHWHQL[S5]HRF[Cha]-NH2; staple 2-9)					1	9	13		> 1000	100 to 1000	> 1000	100 to 1000
CSCC[C@H](NC(=O)[C@H](C)NC(=O)[C@H](C)NC(=O)[C@]1(C)CCCC=CCCCCCC[C@@](C)(NC(=O)[C@H](Cc2ccccc2)NC(=O)[C@@H](NC(=O)[C@H](CC(C)C)NC(C)=O)[C@@H](C)O)C(=O)N[C@@H](C)C(=O)N[C@@H](Cc2ccc(O)cc2)C(=O)N[C@@H](Cc2c[nH]c3ccccc23)C(=O)N[C@@H](C)C(=O)N[C@@H](C)C(=O)N[C@@H](CC(C)C)C(=O)N1)C(=O)N[C@H](C)C(N)=O [compound 72] (Ac-LTF[R8]AYWAAL[S5]AAM[dA]-NH2; staple 4-11)	1	1	4	10	2	0	3					
CC(=O)N[C@@H](CC(C)C)C(=O)N[C@H](C(=O)N[C@@H](Cc1ccc(F)c(F)c1)C(=O)N[C@]1(C)CCCCCC/C=C/CCC[C@@](C)(C(=O)N[C@@H](CO)C(=O)N[C@@H](C)C(=O)N[C@@H](C)C(N)=O)NC(=O)[C@H](CCC(C)C)NC(=O)[C@H](CCC(N)=O)NC(=O)[C@H](C)NC(=O)[C@H](Cc2c[nH]c3ccccc23)NC(=O)[C@H](Cc2ccc(O)cc2)NC(=O)[C@H](CCC(=O)O)NC1=O)[C@@H](C)O [compound 160]	2	10	16	31	−1	−1	1					
CC(=O)N[C@@H](CC(C)C)C(=O)N[C@H](C(=O)N[C@@H](Cc1ccccc1)C(=O)N[C@]1(C)CCCCCCC=CCCC[C@@](C)(C(=O)N[C@@H](C)C(=O)N[C@@H](Cc2c[nH]cn2)C(=O)N[C@@H](Cc2ccccc2)C(=O)N[C@@H](C)C(N)=O)NC(=O)[C@H](CC(C)C)NC(=O)[C@H](CCC(N)=O)NC(=O)[C@H](C)NC(=O)[C@H](Cc2c[nH]c3ccccc23)NC(=O)[C@H](Cc2c[nH]cn2)NC(=O)[C@H](C)NC1=O)[C@@H](C)O [compound 183] (Ac-LTF[R8]AHWAQL[S5]AHFA-NH2; staple 4-11)	1	1	4	8	2	0	3					
CC(=O)N[C@@H](CC(C)C)C(=O)N[C@H](C(=O)N[C@@H](Cc1ccccc1)C(=O)N[C@]1(C)CCCCCCC=CCCC[C@@](C)(C(=O)N[C@@H](C)C(=O)N[C@@H](C)C(=O)N[C@@H](Cc2c[nH]c3ccccc23)C(=O)N[C@H](C)C(N)=O)NC(=O)[C@H](CC(C)C)NC(=O)[C@H](CCC(N)=O)NC(=O)[C@H](C)NC(=O)[C@H](Cc2c[nH]c3ccccc23)NC(=O)[C@H](Cc2ccc(O)cc2)NC(=O)[C@H](C)NC1=O)[C@@H](C)O [compound 211] (Ac-LTF[R8]AYWAQL[S5]AAW[dA]-NH2; staple 4-11)					5	3	1		< 10	< 10	100 to 1000	10 to 100
CC(=O)N[C@@H](CC(C)C)C(=O)N[C@H](C(=O)N[C@@H](Cc1ccccc1)C(=O)N[C@]1(C)CCCCCC/C=C/CCC[C@@](C)(C(=O)N[C@@H](C)C(=O)N[C@@H](C)C(=O)N[C@@H](C)C(=O)N[C@@H](C)C(=O)N[C@@H](C)C(=O)N[C@H](C)C(N)=O)NC(=O)[C@H](CC(C)C)NC(=O)[C@H](CCC(N)=O)NC(=O)[C@H](C)NC(=O)[C@H](Cc2c[nH]c3ccccc23)NC(=O)[C@H](Cc2ccc(O)cc2)NC(=O)[C@H](CCC(=O)O)NC1=O)[C@@H](C)O [compound 331] (Ac-LTF[R8]EYWAQL[S5]AAAAA[dA]-NH2; staple (E) 4-11)	4.5	11	14.5	30.5	0	0	0	8				
